Results published in the NIST ThermoML archive (doi:10.1021/acs.jced.8b00292).
± gives the expanded uncertainty stated by the source.

Assays:
[1] = Crystal; DSC
[2] = Molar enthalpy of transition or fusion; settings: Crystal; DSC

Triple point temperature [1]: 496.42 ± 1.2 K
Molar enthalpy of transition or fusion [2]: 4.66 ± 0.215 kcal/mol
SMILES: Nc1nc(Cl)cc(Cl)n1 [2-amino-4,6-dichloropyrimidine]
